This is an account of results in patent US20250042886A1, “BIS(HETERO)ARYL THIOETHER OXADIAZINES AS FUNGICIDAL COMPOUNDS” (Bayer Aktiengesellschaft, priority 2021, published 2025).

A word on the chromatographic logP: it is a lipophilicity value derived from retention on a column. Read a high chromatographic logP as a more lipophilic compound. The inhibition is how much of the control response was suppressed.

For series [1], the system named is Sphaerotheca fuliginea. The series is described as follows: In vivo preventive test on Sphaerotheca fuliginea (powdery mildew on cucurbits). Conditions: Podosphaera fuliginea, 192 h; 500 ppm of active ingredient, sprayed on young gherkin plants 24 h before inoculation; evaluated 8 days after inoculation; read-out: efficacy. The protocol:
B-3. […] The active ingredients were made soluble and homogenized in a mixture of Dimethyl sulfoxide/Acetone//Tween® 80 and then diluted in water to the desired concentration. The young plants of gherkin were treated by spraying the active ingredient prepared as described above. Control plants were treated only with an aqueous solution of Acetone/Dimethyl sulfoxide/Tween® 80. After 24 hours, the plants were contaminated by spraying the leaves with an aqueous suspension of Sphaerotheca fuliginea spores.

Series [2] in a line: Measurement of Log P values by HPLC on reversed phase columns (EEC directive 79/831 Annex V.A8). The class given is physicochemical. Conditions: Table 1, compounds of formula (I); method [a]: LC-UV, acidic range, 0.1% formic acid in water and acetonitrile.
For series [3], the system named is Fusarium culmorum. The series is described as follows: Fusarium culmorum in vitro cell test. The format is cell-based. Conditions: 120 h, liquid culture, 5 days incubation, read-out: efficacy (inhibition of fungal growth); for inhibition at 20 ppm: 20 ppm of active ingredient. Summed up:
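Spores in liquid mineral-salts/saccharose medium exposed to compounds (DMSO ≤1% final) for 5 days. Mycelium growth measured spectrometrically, with inhibition derived from absorbance relative to fungicide-free control wells.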

Series [4] deals with Colletotrichum lindemuthianum. The experiment in a line: Colletotrichum lindemuthianum in vitro cell test. Conditions: 144 h, liquid culture, 6 days incubation, read-out: efficacy (inhibition of fungal growth); for inhibition at 20 ppm: 20 ppm of active ingredient. The class given is cell-based. Put shortly: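 Inhibition of spore germination and mycelium growth, as absorbance relative to untreated wells, was read on day 6. Compounds from DMSO stocks were added to a spore suspension in glucose/peptone/yeast extract broth.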

Each structure is given as a SMILES string.

Turning to `FC(F)(F)c1cccc(Sc2cnc(Cl)cc2C2=NOC[C@@H](Cc3ccc(Cl)cc3Cl)N2)c1` (racemic) [Compound I-022], in series [1], the pest or weed control at 500 ppm is 90 to 100%. The same compound registered a chromatographic logP in series [2] of 4.97. Also, the inhibition at 20 ppm in series [3] and in series [4] was 90 to 100% throughout.

`Cc1cccc(Sc2cnc3ccccc3c2C2=NOC[C@H](Cc3ccc(C)cc3C)N2)c1` (racemic) [Compound I-023] displayed a chromatographic logP in series [2] of 4.37. Further, the inhibition at 20 ppm in series [3] and in series [4] was 90 to 100% in each case.

`Cc1ccc(C[C@@H]2CON=C(c3c(Sc4cccc(C(F)(F)F)c4)nnc4ccccc34)N2)c(C)c1` (racemic) [Compound I-029] had a chromatographic logP in series [2] of 4.66. In addition, the inhibition at 20 ppm lay within 80 to 89% in series [3] and 90 to 100% in series [4].

Consider `Cc1ccc(C[C@H]2CON=C(c3c(Sc4cccc(C(F)(F)F)c4)cnc4ccccc34)N2)c(C)c1` (racemic) [Compound I-030], for which the chromatographic logP in series [2] was determined as 4.57. The inhibition at 20 ppm in series [3] and in series [4] was 90 to 100% each time.

`Cc1ccc(C[C@@H]2CON=C(c3nc(C)ncc3Sc3cccc(Cl)c3)N2)c(C)c1` (racemic) [Compound I-031]: the pest or weed control at 500 ppm in series [1] fell in the range of 90 to 100%. Also, in series [2], the chromatographic logP was 5.16. The inhibition at 20 ppm in series [3] and in series [4] was 90 to 100% in each case.

In the case of `Cc1cccc(Sc2cnc(C)nc2C2=NOC[C@@H](Cc3ccc(C)cc3C)N2)c1` (racemic) [Compound I-032], the pest or weed control at 500 ppm in series [1] was 90 to 100%. The compound further had a chromatographic logP in series [2] of 5.09. Moreover, the inhibition at 20 ppm in series [3] lay in the range of 80 to 89%; in series [4], 90 to 100%.

For the compound `Cc1ccc(C[C@@H]2CON=C(c3nc(C)ncc3Sc3cccc(Cl)c3)N2)c(Cl)c1` (racemic) [Compound I-033], the pest or weed control at 500 ppm in series [1] lay in the range of 90 to 100%. For the same compound, the chromatographic logP in series [2] was 5.24. Also, the inhibition at 20 ppm in series [3] and in series [4] was 90 to 100% each time.

`Cc1cc([C@@H]2CON=C(c3c(Sc4cccc(Cl)c4)nnc(C)c3C)N2)c(C)s1` (racemic) [Compound I-100] showed a chromatographic logP in series [2] of 3.49. In addition, the inhibition at 50 µM in series [3] (50 μMol/l of active ingredient) and in series [4] (50 μMol/l of active ingredient) was 90 to 100% in each case.
